Assay results reported in US11434205B2, “Substituted imidazole carboxylate derivatives and the use thereof” (priority 2018, dated 2022).

Assays:
rats [1] = test: Loss of righting reflexes (LORR) assay in rats, ED50 by up and down method; format: in vivo, rat; conditions: tail vein, class symbols; for ED50: Rattus norvegicus
Protocol: The Anesthetic Activity of the Compounds was Assessed in Rats Using a Loss of Righting Reflexes (LORR) Assay
(§1) Adult male Sprague-Dawley rats (250-300 g) were selected for the experiment. […] The anesthesia effects of the compounds were assessed in rats using a LORR assay and a period >30 s was considered as an indicator of general anesthesia. Then the up and down method was used to determine 50% effective dose (ED50). The drugs were administered through the tail vein of rats in a volume of 0.6 mL and at a rate of 0.1 mL/s.

[2] = tested on: secretion of cortisol, H295R cell line; test: cells; format: cell-based; conditions: for Cortisol as an indicator to determine the presence of inhibition: H295R; for EC50: Homo sapiens, NCI-H295R, read-out: EC50 (Cortisol)
Protocol: (§2) The Effects of the Compounds on Adrenocortical Function In Vitro Test
(§3) Then secretion of the cortisol and corticosterone in the supernatant, was measured using HPLC-MS/MS method to determine whether the compounds of the present invention had adrenotoxic potential.

[3] = tested on: secretion of corticosterone, H295R cell line; test: cells; format: cell-based; conditions: for Corticosterone as an indicator to determine the presence of inhibition: H295R; for EC50: Homo sapiens, NCI-H295R, read-out: EC50 (Corticosterone)
Protocol: as §2, §3

rats [4] = tested on: rats
Protocol: as §1

rats [5] = test: Pharmacological characteristics at equivalent doses (2×ED50) in rats; conditions: 2×ED50, tail vein; for Adverse reactions: Red urine (incidence): DMSO solution (DMSO alone 10/10); for Adverse reactions: Tremor (incidence): animals affected/animals; for Onset time: time of LORR
Protocol: Comparison of Pharmacological Characteristics of the Compounds at Equivalent Doses (2×ED50) in Rats
Adult male Sprague-Dawley rats (250-300 g) were selected for the experiment (n=8). […] The drugs were administered at a dose twice their ED50 through the tail vein of rats in a volume of 0.6 mL and at a rate of 0.1 mL/s. In addition, the time of LORR was recorded as the onset time of anesthesia. […] Furthermore, the duration of the pharmacological effects is sufficient to meet the time requirements for rapid induction of general anesthesia and for diagnostic examinations, some short invasive clinical examinations, or operations.

Compound	ED50 (rats [1])	Cortisol as an indicator to determine the presence of inhibition ([2]; Table A3)	EC50 [2]	Corticosterone as an indicator to determine the presence of inhibition ([3]; Table A3)	EC50 [3]	Approximate therapeutic index (rats [4])	Minimal lethal dose (rats [4])	Righting reflex duration (rats [5])	Adverse reactions: Red urine (incidence) (rats [5])	Adverse reactions: Tremor (incidence) (rats [5])	Onset time (rats [5])	Adverse reactions: Tongue stretching (incidence) (rats [5])	Cortisol as an indicator to determine the presence of inhibition ([2]; Table C3)	Corticosterone as an indicator to determine the presence of inhibition ([3]; Table C3)	ED50 (mg/kg) (rats [1])	Sedation duration (mg/kg) (rats [5])
CCC1(COC(=O)c2cncn2[C@H](C)c2ccccc2)CC1 [Compound A9]	0.1 to 0.5 mg/kg	0	> 10 µM	0	> 10 µM	>13	>5 mg/kg	4.80 ± 1.25 min	8/8	5/8	0.40 ± 0.15 min					
C[C@H](c1ccccc1)n1cncc1C(=O)OC1(C)CCC1=O (some centres unmarked) [Compound A13]	0.1 to 0.5 mg/kg	0	> 10 µM	0	> 10 µM	>10	>4 mg/kg	2.31 ± 2.14 min	Red urine (8/8)		0.56 ± 0.12 min					
C=C=CC1(SC(=O)c2cncn2[C@H](C)c2ccccc2)COC1 [Compound D33]	0.5 to 1 mg/kg					>10	>8 mg/kg	0.92 ± 0.33 min	Red urine (8/8)		0.71 ± 0.22 min					
C[C@H](c1ccccc1)n1cnc(F)c1C(=O)OC1CC1 [Compound E34]	0.1 to 0.5 mg/kg					>12	>2 mg/kg	1.78 ± 1.09 min	(8/8)		0.29 ± 0.20 min	(1/8),				
CC#CC(C)OC(=O)c1cncn1[C@H](C)c1ccccc1 (some centres unmarked) [Compound D32]	0.1 to 0.5 mg/kg					>16	>5 mg/kg	2.14 ± 1.23 min	Red urine (8/8)		0.49 ± 0.23 min	Tongue stretching (2/8),				
CC#CC(C)(C)OC(=O)c1cncn1[C@H](C)c1ccccc1 [Compound D31]	0.5 to 1 mg/kg					>13	>9 mg/kg	2.65 ± 1.10 min	Red urine (8/8)		0.41 ± 0.15 min					
CCC(C)(C)OC(=O)c1cncn1[C@H](C)c1ccccc1 [Compound C19]	0.1 to 0.5 mg/kg		> 1 µM		> 1 µM	>20	>5 mg/kg	1.26 ± 0.99 min	Red urine (8/8)		0.45 ± 0.23 min		0	0		
[2H]C#CC(C)(C)OC(=O)c1cncn1[C@H](C)c1ccccc1 [Compound D16]	0.5 to 1 mg/kg					>12	>6 mg/kg	1.17 ± 0.98 min	Red urine (8/8)		0.36 ± 0.19 min					
C[C@H](c1ccccc1)n1cncc1C(=O)OC1(CC2CO2)COC1 (some centres unmarked) [Compound B22]	0.5 to 1 mg/kg					>10	>17 mg/kg	1.24 ± 0.12 min	8/8	4/8	0.92 ± 0.14 min					
CSCCSC(=O)c1cncn1[C@H](C)c1ccccc1 [Compound C30]	0.5 to 1 mg/kg		> 1 µM			>11	>11 mg/kg	3.67 ± 1.48 min	Red urine (8/8)		0.23 ± 0.03 min		0	0		
C=CCC1(OC(=O)c2cncn2[C@H](C)c2ccccc2)CCC1 [Compound D12]	0.5 to 1 mg/kg					>14	>10 mg/kg	2.15 ± 1.03 min	Red urine (8/8)		0.32 ± 0.09 min					
C#CC1(OC(=O)c2c(F)ncn2[C@H](C)c2ccccc2)COC1 [Compound E4]						>20	>10 mg/kg	4.38 ± 1.29 min	(8/8)		0.45 ± 0.05 min				B (B means that the measured ED50 is in the range of 0.10-0.50 mg/kg (excluding 0.10 mg/kg, including 0.50 mg/kg).)	10.65 ± 1.31
